# Test results: patent US20150118311A1, “Highly Penetrative Nanocarriers for Treatment of CNS Disease” (priority 2012, published 2015)
# Like-named read-outs stand apart in the source and are kept apart here.
# Key:
# [1] = tested on: GS5 cells; experiment: GS5 cell proliferation/viability (MTT, AlamarBlue); type: cell-based, human
# [2] = tested on: BCSCs; type: cell-based, human
# [3] = tested on: BCSC line PS11; experiment: Flow cytometry of CD133+ population in PS11; conditions: 1 μM
# [4] = tested on: BCSC sphere formation; experiment: BCSC sphere formation
# [5] = tested on: GS5-derived tumors; experiment: Survival of nude rats with intracranial GS5 (BCSC) xenografts after CED; type: in vivo; conditions: BCSC xenograft tumors in the rat, FIG. 1C
# [6] = tested on: CD133+ cell population; experiment: Flow cytometry of CD133+ cell population in BCSC culture; type: cell-based, human; conditions: 100 nM drug, 3 days after plating, DI treated culture
# [7] = tested on: U87MG-derived xenografts; experiment: Survival of nude rats with intracranial U87MG xenografts after CED; type: in vivo; conditions: U87MG xenograft
# [8] = tested on: U87MG; experiment: cells; conditions: Homo sapiens, U-87 MG, read-out: IC50, growth of U87MG in vitro
# [9] = Homo sapiens, 72 h, read-out: IC50 of candidate drugs on GS5 cells
# [10] = GS5 cells, three days after treatment, read-out: IC50 of candidate drugs on GS5 cells
# [11] = read-out: IC50 of candidate drugs on GS5 cells
# [12] = Homo sapiens, 72 h, GS5 cells, three days after treatment, read-out: IC50 of candidate drugs on GS5 cells
compound,measurement,setting,value
Sc1ncnc2nc[nH]c12 [6-Mercaptopurine monohydrate],IC50,[1]; [9],7.8 µM
S=C(S)N1CCCC1 [Ammonium pyrrolidinedithiocarbamate],IC50,[1]; [10],3.3 µM
COc1ccc(C[C@H]2NC[C@H](O)[C@H]2OC(C)=O)cc1 [Anisomycin],IC50,[1]; [11],0.3 µM
same,performance on in vitro assays against BCSCs,[2],performed well
C[C@H]1C[C@H]2[C@@H]3CCC4=CC(=O)C=C[C@]4(C)[C@@]3(F)[C@@H](O)C[C@]2(C)[C@@]1(O)C(=O)CO [Betamethasone],IC50,[1]; [12],25.9 µM
CC(C)C[C@H]1C(=O)N2CCC[C@H]2[C@]2(O)O[C@](NC(=O)[C@@H]3C=C4c5cccc6[nH]c(Br)c(c56)C[C@H]4N(C)C3)(C(C)C)C(=O)N12 [Bromocriptine],IC50,[1]; [9],9.1 µM
CCC(=O)[O-].CCC(=O)[O-].[Ca+2] [Calcium propionate],IC50,[1]; [11],29.5 µM
CC1=C(C(=O)O)N2C(=O)[C@@H](NC(=O)[C@H](N)C3=CCC=CC3)[C@H]2SC1 [Cephradine],IC50,[1]; [12],38.5 µM
CN(C)CCC(c1ccc(Cl)cc1)c1ccccn1 (stereo not shown) [Chlorpheniramine],IC50,[1]; [12],40.4 µM
Nc1nc(Cl)nc2c1ncn2[C@H]1C[C@H](O)[C@@H](CO)O1 [Cladribine],IC50,[1]; [12],3.4 µM
Nc1ccn([C@@H]2O[C@H](CO)[C@@H](O)[C@@H]2O)c(=O)n1 [Cytarabine],IC50,[1]; [12],0.8 µM
C[C@H]1O[C@@H](O[C@H]2[C@@H](O)C[C@H](O[C@H]3[C@@H](O)C[C@H](O[C@H]4CC[C@@]5(C)[C@H](CC[C@@H]6[C@@H]5C[C@@H](O)[C@]5(C)[C@@H](C7=CC(=O)OC7)CC[C@]65O)C4)O[C@@H]3C)O[C@@H]2C)C[C@H](O)[C@@H]1O [Digoxin],IC50,[1]; [9],0.3 µM
same,effect on BCSC proliferation,[2],inhibited BCSC proliferation
same,performance on in vitro assays against BCSCs,[2],performed well
same,effect on CD133+ population,[3],decreased the CD133+ population
same,effect on BCSC sphere formation,[4]; 1 μM,inhibited BCSC sphere formation
same,effect on BCSC sphere formation,[4]; 5 μM,inhibited BCSC sphere formation
CCN1/C(=C/C=C/C=C/c2sc3ccccc3[n+]2CC)Sc2ccccc21 [Dithiazanine iodide],median survival,[5],177 days
same,decrease of CD133+ cell population,[6],57%
same,IC50,[1]; [12],0.3 µM
same,IC50,"[1]; Homo sapiens, GS5, running text, read-out: IC50, inhibition of GS5 proliferation",0.079 µM
CC[C@H]1CN2CCc3cc(OC)c(OC)cc3[C@@H]2C[C@@H]1C[C@H]1NCCc2cc(OC)c(OC)cc21 [Emetine],IC50,[1]; [12],0.3 µM
CN1CCC(Nc2ncc3ncnc(Nc4ccc(F)c(Cl)c4)c3n2)CC1 [Falnidamol],IC50,[1]; [9],22 µM
N=C(N)NCC(=O)O [Glycocyamine],IC50,[1]; [12],33.9 µM
COc1ccc2c(c1)[nH]c1c(C)nccc12 [Harmine],IC50,[1]; [9],19.3 µM
CCN(CC)CCNc1ccc(CO)c2sc3ccccc3c(=O)c12 [Hycanthone],IC50,[1]; [12],5.6 µM
CC1=C2N=C(C=C3N=C(C(C)=C4[N-]C(C(CC(N)=O)C4(C)CCC(=O)NCC(C)OP(=O)([O-])OC4C(CO)OC(n5cnc6cc(C)c(C)cc65)C4O)C4(C)N=C1C(CCC(N)=O)C4(C)CC(N)=O)C(CCC(N)=O)C3(C)C)C(CCC(N)=O)C2(C)CC(N)=O.Cl.[Co+3].[OH-] (stereo not shown) [Hydroxocobalamin hydrochloride],IC50,[1]; [11],32.1 µM
O=S(=O)([O-])[O-].[Fe+2] [Iron(II) sulfate heptahydrate],IC50,[1]; [11],32.1 µM
CCCCCCCCCCCCCCCCOP(=O)([O-])OCC[N+](C)(C)C [Miltefosine],IC50,[1]; [12],27.8 µM
Cc1ccc2ccc3ccc(C)nc3c2n1 [Neocuproine],IC50,[1]; [12],0.2 µM
C[C@@H]1O[C@@H](O[C@@H]2C=C3CC[C@@H]4[C@H](CC[C@]5(C)[C@@H](c6ccc(=O)oc6)CC[C@]45O)[C@@]3(C)CC2)[C@H](O)[C@H](O)[C@H]1O [Proscillaridin A],IC50,[1]; [11],0.1 µM
CCN(CC)CCCC(C)Nc1c2ccc(Cl)cc2nc2ccc(OC)cc12 (stereo not shown) [Quinacrine],IC50,[1]; [12],2.7 µM
Nc1nc2nc[nH]c2c(=S)[nH]1 [Thioguanine],IC50,[1]; [12],4.6 µM
CC(=O)O[C@H]1C(=O)[C@@]2(C)[C@H]([C@H](OC(=O)c3ccccc3)[C@]3(O)C[C@H](OC(=O)[C@H](O)[C@@H](NC(=O)c4ccccc4)c4ccccc4)C(C)=C1C3(C)C)[C@]1(OC(C)=O)CO[C@@H]1C[C@@H]2O [paclitaxel],survival benefit compared to no treatment,[7]; CED,failed to show a survival benefit
same,median survival,[7]; single CED infusion 7 days after inoculation,30 days
same,IC50,[8],0.169 µM
Acriflavine hydrochloride,IC50,[1]; [10],3 µM
